The values that follow come from patent US20240398823A1, “DUAL INHIBITOR OF HISTONE DEACETYLASE 6 AND HEAT SHOCK PROTEIN 90” (TAIPEI MEDICAL UNIVERSITY, priority 2021, published 2024).

The target in one test is T1, HDAC1 (Homo sapiens, UniProt Q13547).
T1 construct: Reaction Biology Corporation (ran the assay as a service)
Kind of test: HDAC enzymes inhibition assay (Reaction Biology), HDAC1. It is filed as biochemical. Particulars: 10-dose, 3-fold dilution from 10 μM, single experiment.

The target in the next test is T2, HSP90α (Homo sapiens, UniProt P07900).
T2 construct: Reaction Biology Corporation (ran the assay as a service)
Kind of test: HSP90 inhibition assay, FITC-geldanamycin competition fluorescence polarization, HSP90α. In kind it is binding. Particulars: FITC-GM competition. For orientation: In fluorescence polarisation assays a small probe gives low polarisation when free and higher when bound to something large.

The test system of test [1] is human lung normal fibroblasts (IMR-90). Kind of test: MTT cytotoxicity to normal cells, IMR-90. As to conditions: 48 hours, read-out: IC50, proliferation of IMR-90. It is filed as cell-based. As for the experimental part: FIGS. 3A and 3B show the effects of Compound 75 on cytotoxicity to normal cell lines. Cells were treated with DMSO or different concentrations of Compound 75 for 48 hours and cell viability was assessed by MTT assay. […] Data are expressed as mean t S.D. N values greater than 3. * P<0.05; ** P<0.01; *** P<0.001, compared with the control group.
The effects on cell viability of the HSP90/HDAC6 dual inhibitors as described in Synthesis Examples (such as Compounds 63, 64, and 66 to 76) were evaluated. Cells were seeded in 96-well plates (5000 cells/well). The next day, the serially diluted drugs were added into the wells and incubated at 37° C. for 48 h. Cell viability was measured by the MTT assay and is expressed as percentages of surviving drug-treated cells relative to untreated control cells. The IC50 was calculated by non-linear regression analysis.
The cytotoxicity to normal cells of Compound 75 was evaluated.

The subject of test [2] is colorectal cancer tumors (CT26). Kind of test: CT26 syngeneic tumor growth in immunocompetent Balb/c mice. As to conditions: CT26 in Balb/c, 10, 25, 50 mg/kg i.v. every two days. In kind it is in vivo, mouse. How it is done:
Tumor size in each mouse (FIG. 5B) and mean tumor size (FIG. 5C) were measured periodically. Bar, SEM. […] N values greater than 3.
The effects of the HSP90/HDAC6 dual inhibitors as described in Synthesis Examples (such as Compounds 63, 64, and 66 to 76) on syngeneic tumor treatment were evaluated. Female BALB/c mice were subcutaneously implanted with mouse colorectal cancer CT26 cells ([…] cells/mouse) in the left unilateral back. After tumor size reached 50 mm^3, mice were i.v. injected with […], STA9090 (Ganetespib), or anti-PD-1 antibody (clone RMP1-14) (4-8 mice per group). The progression of tumor sizes and body weights was measured twice per week. Tumor volume formula: V (mm^3)=(length×width×height)/2. Mice were sacrificed on day 25, and tumors and blood were collected for the analysis of immune cell populations.
After CT26 was injected subcutaneously into the back of immunocompetent mice (Balb/c), the tumors grew to 50 mm^3. Compound 75 was administered intravenously at 10 mg/kg, 25 mg/kg and 50 mg/kg every two days (FIG. 5A).

In test [3] the test system is PD-L1 and IDO expression in tumor region (CT26). Kind of test: IHC of PD-L1 and IDO in CT26 tumor region. In kind it is in vivo, mouse. As to conditions: CT26 tumors, day 25, IHC, 10, 25, 50 mg/kg. How it is done:
The tumors were removed and immunohistochemically stained at 25 days after intravenous tail injection in mice with colorectal cancer tumors. […] Bar, SD.
The effects of the HSP90/HDAC6 dual inhibitors as described in Synthesis Examples (such as Compounds 63, 64, and 66 to 76) on several factors were evaluated. IHC-Paraffin: Tumor tissues were excised from the mice, fixed in 4% formaldehyde solution in PBS, and embedded in paraffin. Sections of 4-5 μm were cut and placed in an oven at 60° C. for overnight. After deparaffinizing and rehydrating the section, the antigen retrieval was performed with citrate buffer (10 mM citrate acid, pH 6) or Tris buffer (10 mM Tris, 1 mM EDTA, pH9) by autoclave for 30 min at 121 C. The sections were blocked with 10% goat serum and then incubated with primary antibodies against the following antigens: IDO (Santa Cruz Biotechnology Dallas, TX, USA), CD8 (Novus, Littleton, CO, USA) and granzyme B (Abcam, Cambridge, UK) at 4 C for overnight. IHC— Frozen for PD-L1: Tumor tissues were collected from the mice, embedded in OCT compound (Sakura Finetek, Torrance, CA, U.S.A.). […] Images of the tumor tissues sections were captured by Mirax Scan (CARL ZEISS, Germany) or TissueFAXS (Vienna, Austria) and analyzed by HistoQuest software (Vienna, Austria).
Compound 75 was evaluated to determine its ability to reduce PD-L1 and IDO in the tumor microenvironment.

Another test concerns serum TGF-β and IL-2. Kind of test: Serum cytokines in CT26 tumor mice. It is filed as in vivo, mouse. Particulars: day 25, 10, 25, 50 mg/kg. As for the experimental part: FIGS. 11A and 11B show effects of Compound 75 on peripheral blood cytokines. BALB/c mice with CT26 tumors were treated with 10, 25 and 50 mg/kg of Compound 75 every two days and sacrificed on day 25. Data are expressed as mean t S.D. N values greater than 3. *P<0.05; ** P<0.01; *** P<0.001, compared to the control group.
The reasons for the decrease of Treg in blood were further investigated.

T1 sequence (Q13547 whole entry): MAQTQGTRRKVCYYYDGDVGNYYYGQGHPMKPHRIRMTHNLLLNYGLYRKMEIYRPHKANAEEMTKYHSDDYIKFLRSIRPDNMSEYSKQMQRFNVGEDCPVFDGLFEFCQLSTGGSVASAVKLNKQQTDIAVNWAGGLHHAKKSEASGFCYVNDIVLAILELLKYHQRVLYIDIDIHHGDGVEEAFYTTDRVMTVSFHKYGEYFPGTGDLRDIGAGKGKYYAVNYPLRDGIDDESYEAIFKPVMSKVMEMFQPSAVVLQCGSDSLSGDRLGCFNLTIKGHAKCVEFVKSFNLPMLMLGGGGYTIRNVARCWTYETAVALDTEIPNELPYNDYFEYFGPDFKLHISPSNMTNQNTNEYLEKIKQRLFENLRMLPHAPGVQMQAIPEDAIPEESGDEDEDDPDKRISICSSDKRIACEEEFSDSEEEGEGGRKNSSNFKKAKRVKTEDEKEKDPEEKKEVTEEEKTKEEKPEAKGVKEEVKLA

For the compound `COc1ccc(N(Cc2ccc(C(=O)NO)cc2)C(=O)c2cc(C(C)C)c(O)cc2O)cc1` [Compound 75, 2,4-Dihydroxy-N-(4-hydroxycarbamoyl-benzyl)-5-isopropyl-N-(4-methoxy-phenyl)-benzamide], the IC50 on HDAC1 was 616 nM; on HSP90α, 52 nM; in test [1], more than 20 µM. Also, in test [2], the “growth of colorectal cancer tumors in mice” value is recorded as “inhibit the growth of colorectal cancer tumors in mice”. For the same compound, in test [3], the “PD-L1 and IDO expressions in the tumor region” value is “reduces PD-L1 and IDO expressions”. Besides, the “serum IL-2” value with serum TGF-β and IL-2 is given as “had no effect”. Further, in the test with serum TGF-β and IL-2, the “serum TGF-β expression” value was “significantly reduced”.
